{
  "source": "patent US6723702B2",
  "about": "“Use of relaxin treat diseases related to vasoconstriction” (RAS Medical, Inc., priority 2000, dated 2004)",
  "assay_type_in_all_cases": "in vivo, rat",
  "key": {"intact, female rats": {"system": "intact, female rats", "assay": "Chronic infusion of purified porcine RLX or rhRLX: MAP and renal function in conscious rats", "settings": "chronic infusion 4 μg/hour", "source_text": "Long-Evans female rats aged 10-14 weeks were purchased from Harlan Sprague-Dawley (Frederick, Md.). They were fed PROLAB RMH 2000 diet containing 0.48% sodium (PME Feeds Inc., St. Louis, Mo.) and provided water ad libitum. To prepare the rats for experimental procedures, they were trained for several hours in a Plexiglas restraining cage (Braintree Scientific Co., Braintree, Mass.) on at least five different occasions before surgical intervention. These cages afforded sufficient space for grooming of the face and front paws while preventing the rat from turning around. Thus, accurate timed-urine collections and blood samplings were made possible from the chronically implanted bladder and vascular catheters, respectively. Rats failing to habituate to the cage were eliminated from the study (<1%). All animal procedures were approved by the Institutional Animal Care and Use Committee of the Magee-Womens Research Institute.\nThe details of the surgical procedures have been previously described. See, e.g., Conrad (1984) Kidney Int. 26:24-29; and Danielson and Conrad (1995) J. Clin. Invest. 96:482-490. […] The bladder catheter, a silastic-covered stainless steel cannula, was sewn into the urinary bladder with a purse-string suture and exteriorized through the ventral abdominal wall. This catheter was then plugged allowing the animal to urinate through the urethra while in her home cage. In the ovariectomized and sham ovariectomized animals, the ovaries were first ligated and then excised, or briefly manipulated, respectively, via a small incision made in the lateral abdominal wall immediately after the insertion of vascular and bladder catheters. All surgeries were conducted using aseptic technique. At least a 7-day recovery period was allowed before experimentation.\nFor chronic infusion of relaxin, an osmotic minipump was inserted subcutaneously (s.c.) in the back of the animal under ether anesthesia. After shaving and cleaning the skin with alcohol and betadine, a small incision was made and the minipump containing either recombinant human relaxin (rhRLX), purified porcine relaxin (RLX), or vehicle was inserted. Then the incision was closed with surgical staples. The model 2001 and 2ML1 osmotic minipumps (Alza Co., Palo Alto, Calif.) were used for the purified porcine RLX and rhRLX, respectively.\nAt the beginning of each experiment, immediately after opening the arterial catheter and before infusion of fluids, 100 μl of blood was collected into a heparinized tube. […] The hematocrit was also routinely determined on these midpoint blood samples. […] MAP, GFR, ERPF, and ERVR were assessed on days 2 and 5 of the infusion, and 5-12 days after depletion of the 7-day minipump. […] Circulating relaxin concentrations of 20-40 ng/mL have been measured in rats of 12-14 gestational days. […]"}, "[1]": {"system": "ischemic wound on the back region of rats", "assay": "Ischemic H-shaped double flap wound model", "description": "The effect of rhRLX on normal and ischemic wound healing in two rat models of dermal wound healing was evaluated. RhRLX in vehicle, or vehicle alone, was delivered by subcutaneous infusion to Sprague-Dawley rats using an implanted ALZET7 osmotic pump (Alza Corp., Mountain View, Calif.).\nIn the second model, a standardized ischemic, H-shaped, double flap wound was made on the back region. The area of surface necrosis was measured on day 14 and day 21.\nIn the third animal model, a standard ischemic wound (H-shaped, 8 cm long and 2 cm wide) was created on the back region of rats. Perforating branches of the central vein were cut to ensure that the wound was ischemic. The resulting wound is then ischemic, but not completely necrotic. On day 14 and day 21, the surface necrosis was measured. RhRlx treatment (0.2 mg/kg via minipump) reduced the surface necrotic area in the flap region, compared to vehicle treatment (at day 14: vehicle 195 mm^2, rhRlx 123 mm^2; at day 21 vehicle 180 mm^2, rhRlx 103 mm^2)."}, "[2]": {"system": "Female Sprague-Dawley rats", "assay": "Kidney function in cyclosporine-treated rats", "settings": "for GFR / Urine Flow: Normal = 1.0", "description": "Relaxin (rhRlx) was administrated via subcutaneous pumps at dose of either 0.1 mg/kg/day or 0.5 mg/kg/day for 10 days (day 0-10). On day B2 (baseline), Day 4, and Day 9, all rats were put into metabolic cages. The 24-hour urine volume was measured to calculate urine flow rate using the following formula: […]\nBlood and urine were collected for creatinine measurement to calculate the GFR using the following formula: […]"}, "[3]": {"assay": "Serum rhRLX, quantitative sandwich immunoassay (Example 1)", "settings": "osmotic minipump 4 μg/hour for 5 days, 17 rats, mean±SEM", "description": "One milliliter of blood was obtained from the rats administered rhRLX for 5 days at the end of the renal function measurements. The levels of rhRLX in serum were then measured in a quantitative sandwich immunoassay. Unemori et al. (1996) J. Clin. Invest. 98:2739-2745. Briefly, wells of a 96-well microtiter plate (Maxisorp Immunomodules, Nunc, Inc., Naperville, Ill.) were coated overnight with affinity purified anti-rhRLX rabbit polyclonal antibody. Sera were diluted in phosphate buffered saline containing Tween 20, Thimerosal, bovine serum albumin (Sigma Chemical Co., St. Louis, Mo.) and normal goat IgG (Organon Teknika-Cappel, Durham, N.C.), and 100 μl were added to wells in duplicate. […] After an appropriate incubation period at room temperature, the wells were washed again, and 100 μl of a tetramethylbenzidine solution was added to each well. After color development, the reaction was stopped, absorbances at 450/630 nm were measured, and relaxin concentrations in the sera were determined by entering data into a four-parameter logistic curve-fitting program."}, "[4]": {"settings": "days 2 and 5, rhRLX significant only at day 5"}, "[5]": {"settings": "CsA and rhRlx at either 0.1 mg/kg or 0.5 mg/kg"}, "[6]": {"settings": "Normal rats + 0.5 mg/kg, Day 10"}},
  "data": [
    {"substance": "Porcine RLX: lyophilized, purified porcine relaxin (Sherwood and O'Byrne 1974), dissolved in Ringer's solution", "values": [
      {"measurement": "effect on MAP", "setting": "intact, female rats; days 2 and 5 (FIG. 1A)", "value": "did not significantly change"},
      {"measurement": "effect on ERPF", "setting": "intact, female rats; [4]", "value": "marked increase"},
      {"measurement": "effect on ERVR", "setting": "intact, female rats; [4]", "value": "reciprocal reduction"},
      {"measurement": "effect on GFR", "setting": "intact, female rats; [4]", "value": "marked increase"}
    ]},
    {"substance": "rhRLX: recombinant human relaxin, identical in amino acid sequence to the product of the human H2 gene; A chain of 24, B chain of 29 amino acids", "values": [
      {"measurement": "surface necrotic area in the flap region", "setting": "[1]; 0.2 mg/kg via minipump, day 14", "value": 123, "unit": "mm^2"},
      {"measurement": "surface necrotic area in the flap region", "setting": "[1]; 0.2 mg/kg via minipump, day 21", "value": 103, "unit": "mm^2"},
      {"measurement": "surface necrotic area in the flap region", "setting": "[1]; Example 4, day not stated", "value": 123, "unit": "mm^2"},
      {"measurement": "expression of NO synthase on vascular endothelium", "setting": "[1]; immunohistochemical staining, systemic treatment", "value": "enhances"},
      {"measurement": "GFR", "setting": "[2]; CsA + 0.1 mg/kg, Day 5", "value": "0.99 ± 0.15"},
      {"measurement": "Urine Flow", "setting": "[2]; CsA + 0.1 mg/kg, Day 5", "value": "1.21 ± 0.36"},
      {"measurement": "GFR", "setting": "[2]; CsA + 0.1 mg/kg, Day 10", "value": "1.49 ± 0.18"},
      {"measurement": "Urine Flow", "setting": "[2]; CsA + 0.1 mg/kg, Day 10", "value": "1.59 ± 0.41"},
      {"measurement": "GFR", "setting": "[2]; CsA + 0.5 mg/kg, Day 5", "value": "1.231 ± 0.15"},
      {"measurement": "Urine Flow", "setting": "[2]; CsA + 0.5 mg/kg, Day 5", "value": "1.27 ± 0.16"},
      {"measurement": "GFR", "setting": "[2]; CsA + 0.5 mg/kg, Day 10", "value": "1.39 ± 0.13"},
      {"measurement": "Urine Flow", "setting": "[2]; CsA + 0.5 mg/kg, Day 10", "value": "1.067 ± 0.11"},
      {"measurement": "creatinine clearance compared to animals treated with CsA alone", "setting": "[2]; [5]", "value": "significantly improved"},
      {"measurement": "urine flow rate compared to animals treated with CsA alone", "setting": "[2]; [5]", "value": "significantly improved"},
      {"measurement": "GFR", "setting": "[2]; Normal rats + 0.5 mg/kg, Day 5", "value": "1.47 ± 0.08"},
      {"measurement": "Urine Flow", "setting": "[2]; Normal rats + 0.5 mg/kg, Day 5", "value": "1.68 ± 0.02"},
      {"measurement": "GFR", "setting": "[2]; [6]", "value": "1.50 ± 0.09"},
      {"measurement": "Urine Flow", "setting": "[2]; [6]", "value": "1.42 ± 0.01"},
      {"measurement": "creatinine clearance compared to the baseline", "setting": "[2]; normal rats, 0.5 mg/kg, day 5", "value": 147, "unit": "%"},
      {"measurement": "urine flow rate compared to the baseline", "setting": "[2]; normal rats, 0.5 mg/kg, day 5", "value": 168, "unit": "%"},
      {"measurement": "serum concentration of rhRLX", "setting": "[3]", "value": "28.1 ± 4.8", "unit": "ng/mL"}
    ]}
  ]
}
